One series deals with T1, Human COX-1 (Homo sapiens, UniProt P23219).
T1 construct: Human blood (≈50 mL) from male or female donors who had not received any aspirin or NSAIDs for 14 days was collected; endogenous in cells; host or cells: human whole blood from donors, heparinised, stimulated with calcium ionophore A23187
The experiment in a line: COX-1 enzyme activity in human whole blood (A23187-stimulated, thromboxane B2 EIA). Format: cell-based. The settings on record: 100 μM test compound. On the procedure: (§1) The assay for COX-1 and COX-2 enzyme activity, in the human whole blood was performed as described in Brideau et al., Inflamm Res., 45: 68-74 (1996)). Human blood (≈50 mL) from male or female donors who had not received any aspirin or NSAIDs for 14 days was collected at two local area blood donor centers and placed in polypropylene syringes containing sodium heparin (20 units per mL blood, final concentration). The blood was transported to the laboratory on ice packs and used within 1.5 hours of collection. Upon receipt in the laboratory, the blood was allowed to come to room temperature for 15 minutes prior to distribution in 1 mL aliquots per well of 24 well tissue culture plates. The plates were then placed on a gently rotating platform shaker in a 5% CO2 incubator at 37° C. for 15 minutes. Test compounds were dissolved in DMSO, at 1000 fold the final desired concentration, and further diluted, as indicated, in DMSO. One μL of each dilution of the test compound was added per well, in duplicate wells; wells not receiving test compound (e.g., basal, background or control wells) received 1 μL DMSO.
(§2) To induce COX-2, lipopolysaccharide (LPS) from E. coli (LPS, serotype 026:B6 or serotype 0127:B8, Sigma Chemical Co., St. Louis, Mo., Catalogue No. L3755 or L3129, respectively) was added at 10 μg/mL (2 μL of 5 mg/mL LPS in DMSO) to appropriate wells 15 minutes after the addition of the test compound. (Basal or background wells not incubated with LPS received 2 μL of DMSO.) For the stimulation of COX-1, the calcium ionophore, A23187 (free acid from Sigma Chemical Co., St. Louis, Mo., Catalogue No. C7522) was added at 25 μM (1 μL of 25 mM stock in DMSO) to separate wells 4.5 hours after the addition of the test compound. (Again, basal, background or control wells not stimulated with A23187 received 1 μL of DMSO.) At 5 hours after the addition of the test compound, all incubations were terminated by placement on ice and the addition of 2 mM EGTA (100 μL of 20 mM EGTA, tetrasodium, in PBS (phosphate buffered saline) without Ca^++ and Mg^++, pH 7.2)). The resulting solutions, were transferred by polyethylene transfer pipettes to 15 mL polypropylene centrifuge tubes and centrifuged at 1200 g for 10 minutes at 4° C. One hundred μL of plasma was removed from each blood sample and added to 1 mL of methanol in new 15 mL polypropylene centrifuge tubes, vortexed, and stored overnight at −20° C. The next day, the samples were centrifuged at 2000 g for 10 minutes at 4° C. and the supernatants transferred to glass tubes and evaporated to dryness. The samples were assayed for thromboxane B2 using EIA kits supplied by Cayman Chemical Co. (Ann Arbor, Mich., Catalogue No. 519031) in duplicate wells after reconstitution with EIA Buffer and appropriate dilution (2000 fold for COX-1 and 500 fold for Cox-2 samples).
The % inhibition for COX-1 and COX-2 enzyme activity in human whole blood by the test compounds, at the indicated concentrations, are given in Table 1.

The next series deals with T2, Human COX-2 (Homo sapiens, UniProt P35354).
T2 construct: Human blood (≈50 mL) from male or female donors who had not received any aspirin or NSAIDs for 14 days was collected; endogenous in cells; host or cells: human whole blood from donors, heparinised, COX-2 induced with E. coli LPS
T2 sequence (P35354 18-604): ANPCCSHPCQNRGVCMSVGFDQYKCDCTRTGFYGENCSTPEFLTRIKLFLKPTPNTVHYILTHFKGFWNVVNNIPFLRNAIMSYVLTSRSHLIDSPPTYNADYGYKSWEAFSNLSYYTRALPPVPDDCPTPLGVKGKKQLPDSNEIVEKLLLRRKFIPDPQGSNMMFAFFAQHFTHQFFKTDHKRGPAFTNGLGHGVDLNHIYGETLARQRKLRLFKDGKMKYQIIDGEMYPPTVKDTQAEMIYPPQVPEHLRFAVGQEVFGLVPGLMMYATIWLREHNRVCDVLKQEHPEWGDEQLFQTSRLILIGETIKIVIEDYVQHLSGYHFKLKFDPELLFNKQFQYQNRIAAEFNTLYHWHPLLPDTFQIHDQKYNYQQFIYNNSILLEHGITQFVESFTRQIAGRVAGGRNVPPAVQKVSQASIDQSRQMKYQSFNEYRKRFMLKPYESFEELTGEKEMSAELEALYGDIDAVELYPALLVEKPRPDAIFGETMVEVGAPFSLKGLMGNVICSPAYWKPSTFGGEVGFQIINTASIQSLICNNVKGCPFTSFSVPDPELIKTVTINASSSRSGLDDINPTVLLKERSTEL
The experiment in a line: COX-2 enzyme activity in human whole blood (LPS-induced, thromboxane B2 EIA). The format is cell-based. The settings on record: for inhibition at 1 µM: 1 μM test compound; for inhibition at 10 µM: 10 μM test compound. On the procedure:
as §1, with “Human” for “The assay for COX-1 and COX-2 enzyme activity, in the human whole blood was performed as described in Brideau et al., Inflamm Res., 45: 68-74 (1996)). Human”
as §2, with “(Basal” for “To induce COX-2, lipopolysaccharide (LPS) from E. coli (LPS, serotype 026:B6 or serotype 0127:B8, Sigma Chemical Co., St. Louis, Mo., Catalogue No. L3755 or L3129, respectively) was added at 10 μg/mL (2 μL of 5 mg/mL LPS in DMSO) to appropriate wells 15 minutes after the addition of the test compound. (Basal”, “dryness.” for “dryness. The samples were assayed for thromboxane B2 using EIA kits supplied by Cayman Chemical Co. (Ann Arbor, Mich., Catalogue No. 519031) in duplicate wells after reconstitution with EIA Buffer and appropriate dilution (2000 fold for COX-1 and 500 fold for Cox-2 samples).”

Series [1] relates to Rat Carrageenan Air-Pouch. The experiment in a line: Rat carrageenan air-pouch. To be noted: 45 μmol/kg by oral intubation 1 hour prior to carrageenan. Format: in vivo. On the procedure:
The carrageenan air pouch model was performed as described by Sedgwick, A. D., et al., Agents Actions 18, 429-438, (1986) and Masferrer et al., Proc. Natl. Acad. Sci. 91, 3228-3232 (1994). Air pouches were produced by subcutaneous injection of 20 ml of sterile air on day (−6) into the intrascapular area of the back of the anesthesia rat (male CD, Charles River, 175-200 g). An additional 10 mL of sterile air was injected into the pouch 3 days later to keep the space open and to assist in the development of the interior membrane. Six days after the initial air injection, 1 mL of a 1% solution of carrageenan (Sigma, lambda fraction) dissolved in pyrogen-free saline was injected directly into the pouch to produce an inflammatory response. The test compound in vehicle (3 mL/rat, 0.5% Methocel) was administered by oral intubation 1 hour prior to carrageenan injection into the inflammatory pouch. After 4 hours the exudate was removed by pipette into a calibrated centrifuge tube and the volume measured. The number of leukocytes in the exudate was determined by cell counting with a Beckman Coulter Particle Counter with the lower threshold set to exclude red blood cells. The exudate samples were assayed without further processing for PGE2 (prostaglandin E2) using PGE2 EIA kit-Monoclonal, friom Cayman Chemical Co. (Ann Arbor, Mich., Catalogue No. 514010). […]

Molecules are shown by their SMILES.

T1 sequence (P23219 24-599): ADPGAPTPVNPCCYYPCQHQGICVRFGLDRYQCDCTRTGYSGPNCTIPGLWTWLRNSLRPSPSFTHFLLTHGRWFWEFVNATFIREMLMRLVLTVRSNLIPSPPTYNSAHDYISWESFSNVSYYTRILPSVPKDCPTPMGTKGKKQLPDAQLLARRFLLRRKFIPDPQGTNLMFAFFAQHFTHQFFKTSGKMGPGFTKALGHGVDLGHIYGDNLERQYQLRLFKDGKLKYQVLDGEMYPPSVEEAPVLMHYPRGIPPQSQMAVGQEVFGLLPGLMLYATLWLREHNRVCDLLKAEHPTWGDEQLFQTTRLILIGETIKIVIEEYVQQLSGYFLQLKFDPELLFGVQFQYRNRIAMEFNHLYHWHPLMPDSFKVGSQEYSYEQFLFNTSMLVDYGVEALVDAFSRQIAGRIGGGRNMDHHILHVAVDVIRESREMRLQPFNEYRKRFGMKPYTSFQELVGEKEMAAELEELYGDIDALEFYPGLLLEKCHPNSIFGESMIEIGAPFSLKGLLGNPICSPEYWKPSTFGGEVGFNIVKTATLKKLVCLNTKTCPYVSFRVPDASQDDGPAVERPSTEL

In general, inhibition refers to the drop in the measured response relative to a control, in per cent. Lower therefore signals little suppression. `CS(=O)(=O)c1ccc(-c2cc(COCCO[N+](=O)[O-])nn2CC2CCCCC2)cc1` [Example 2f, 4-(1-(Cyclohexylmethyl)-3-((2-(nitrooxy)ethoxy)methyl)pyrazol-5-yl)-1-(methylsulfonyl)benzene] yielded an inhibition at 100 µM at Human COX-1 of 70%. On Human COX-2, 1 µM produced 20% inhibition and the inhibition at 10 µM worked out at 75%. Besides, in series [1] (exudate PGE2 after 4 hours), the “PGE-2 (% Inhibition at @ 45 μmol/kg)” value was 85%. In addition, the “Cell Infiltration (% inhibition @ 45 μmol/kg)” value in series [1] (exudate leukocytes after 4 hours) was 42%.
As usually defined, the melting point is the temperature of the solid-liquid transition. In turn, `CS(=O)(=O)c1ccc(-c2cc(CO[N+](=O)[O-])nn2CC2CCCCC2)cc1` [Example 1h, 1-(1-(Cyclohexylmethyl)-3-((nitrooxy)methyl)pyrazol-5-yl)-4-(methylsulfonyl)benzene] yielded a melting point of 98 to 99 °C. The same compound came in with an inhibition at 100 µM on Human COX-1 of 25%. Besides, on Human COX-2, the inhibition at 1 µM came to 10% and at 10 µM the inhibition was 65%.
Regarding `CCOC(=O)c1cccc(C(=O)c2cccnc2-c2ccc(S(C)(=O)=O)cc2)c1` [Example 12b, Ethyl 3-((2-(4-(methylsulfonyl)phenyl)-3-pyridyl)carbonyl)benzoate], the melting point was in the range of 125 to 132 °C. Also, the inhibition at 100 µM against Human COX-1 was 25%. At Human COX-2, this compound came in with an inhibition at 1 µM of 10% and an inhibition at 10 µM of 20%.
